This note sets out measurements from article PMC5826336 (Frontiers in Synaptic Neuroscience, 2018).

Read-outs that look alike come from different tables or passages of the source.

What all share (type): cell-based
Assay [1] concerns the target T1, human D2R long isoform (Homo sapiens, UniProt P14416).
T1 construct: gene DRD2; full-length long isoform stably expressed in CHO-K1 cells from DiscoverX, HitHunter cAMP assay
Briefly: HitHunter cAMP assay, inhibition of forskolin-stimulated cAMP, agonist mode. The source says: HitHunter cAMP assay, inhibition of forskolin-stimulated cAMP, agonist mode on human D2R long isoform
For orientation: Changes in cAMP serve as a functional read-out for many G protein-coupled receptors.

For assay [2], the target named is T2, D2R long isoform (PathHunter) (Homo sapiens, UniProt P14416).
T2 construct: gene DRD2; long isoform in CHO-K1 PathHunter cells (DiscoverX), beta-galactosidase enzyme-fragment complementation with beta-arrestin; reporter tags not detailed
Briefly: PathHunter beta-arrestin recruitment, agonist mode. The text has this:
PathHunter beta-arrestin recruitment, agonist mode on D2R long isoform (PathHunter)
On the technique in general: Arrestin recruitment assays detect the binding of arrestin to an activated receptor.

For assay [3], the target named is T1, human D2R long isoform. Briefly: antagonism of D2R cAMP and beta-arrestin signaling (data not shown). The conditions noted are these: CHO-K1.
Setting [4] is: read-out: cAMP inhibition assay / EC50 (μM ± SEM).
The mark [5] stands for this setting: read-out: cAMP inhibition assay / EC50 (μM ± S.E.M.).

T2 sequence (P14416 whole entry, the tested form may be a part, canonical isoform): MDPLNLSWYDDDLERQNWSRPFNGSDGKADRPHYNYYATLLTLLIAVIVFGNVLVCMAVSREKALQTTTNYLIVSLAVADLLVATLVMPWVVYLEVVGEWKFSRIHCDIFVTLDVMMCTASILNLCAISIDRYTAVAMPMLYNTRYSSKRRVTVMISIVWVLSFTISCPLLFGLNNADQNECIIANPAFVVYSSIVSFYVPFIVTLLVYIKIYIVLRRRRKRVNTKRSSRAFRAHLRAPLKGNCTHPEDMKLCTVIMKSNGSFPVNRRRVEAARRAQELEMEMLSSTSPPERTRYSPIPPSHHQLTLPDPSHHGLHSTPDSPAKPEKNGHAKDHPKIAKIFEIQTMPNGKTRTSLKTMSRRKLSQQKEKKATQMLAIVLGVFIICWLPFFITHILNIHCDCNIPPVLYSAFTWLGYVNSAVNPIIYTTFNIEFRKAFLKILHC
T1 sequence (P14416 whole entry, canonical isoform): as the sequence (P14416 whole entry, the tested form may be a part, canonical isoform) above

Regarding `Oc1c(CN2CCN(c3ccccn3)CC2)cc(Cl)c2cccnc12` [compound 1, MLS1547], the EC50 at human D2R long isoform [1] (setting [4]) turned out to be 2.2 ± 0.6 µM.
`Oc1c(CN2CCN(c3ccccn3)CC2)ccc2cccnc12` [compound 2]: the EC50 on human D2R long isoform [1] (setting [4]) came to 0.3 ± 0.09 µM; in assay [2], 900 ± 300 nM.
As to `Oc1c(CN2CCN(c3ccccn3)CC2)cc(Br)c2cccnc12` [compound 3], on human D2R long isoform [1] (setting [4]), the EC50 is 7.9 ± 2.1 µM.
As for `COc1c(CN2CCN(c3ccccn3)CC2)cc(Cl)c2cccnc12` [compound 4], the EC50 on human D2R long isoform [1] (setting [4]) came to 13.4 ± 11.7 µM.
Turning to `Clc1c(CN2CCN(c3ccccn3)CC2)ccc2cccnc12` [compound 7], the values for the EC50 (at human D2R long isoform [1] (setting [4]); in assay [2]) were 6.6 ± 5.5 µM and 7300 ± 1800 nM, respectively.
On to `c1ccc(N2CCN(Cc3cccc4ccccc34)CC2)nc1` [compound 12], for which the EC50 on human D2R long isoform [1] (setting [4]) came out at 0.7 ± 0.7 µM.
For `Oc1c(CN2CCN(c3cnccn3)CC2)cc(Cl)c2cccnc12` [compound 18], the EC50 on human D2R long isoform [1] (setting [5]) was 3.5 ± 3.4 µM.
Consider `Oc1c(CN2CCN(c3ncccn3)CC2)cc(Cl)c2cccnc12` [compound 19], for which the EC50 on human D2R long isoform [1] (setting [5]) was 0.7 ± 0.2 µM; in assay [2], 500 ± 300 nM.
As for `Oc1c(CN2CCN(c3ccccc3)CC2)cc(Cl)c2cccnc12` [compound 23], the EC50 on human D2R long isoform [1] (setting [5]) was determined as 2.8 ± 1.2 µM.
With `Oc1c(CN2CCN(C3CCCCC3)CC2)cc(Cl)c2cccnc12` [compound 24], the “antagonism of D2R cAMP and beta-arrestin signaling (data not shown)” value on human D2R long isoform [3] is reported as “compounds with cyclohexane substituents retained binding affinity for the D2R”.
In assay [2], `c1cncc(N2CCN(Cc3ccc4cc[nH]c4c3)CC2)c1` [compound 25] yielded an EC50 of over 39000 nM.
Turning to `c1cncc(N2CCN(Cc3cccc4ccccc34)CC2)c1` [compound 28], the EC50 on human D2R long isoform [1] (setting [5]) turned out to be 13.3 ± 8.6 µM; in assay [2] it was 7700 ± 300 nM.
With `c1ccc2cc(CN3CCN(c4cnccn4)CC3)ccc2c1` [compound 37], the EC50 in assay [2] worked out at 24800 ± 15500 nM.
As for `c1ccc2c(CN3CCN(c4cnccn4)CC3)cccc2c1` [compound 38], the EC50 on human D2R long isoform [1] (setting [5]) stood at 27.3 ± 18.2 µM.
`c1cnc(N2CCN(Cc3ccc4cc[nH]c4c3)CC2)nc1` [compound 43]: the values for the EC50 (on human D2R long isoform [1] (setting [5]); in assay [2]) were 0.04 ± 0.01 µM and 100 ± 10 nM, respectively.
In the same order, the values of `c1cnc(N2CCN(Cc3cc4ccccc4[nH]3)CC2)nc1` [compound 44] are 0.6 ± 0.5 µM and 1000 ± 200 nM.
In the same order, the values of `c1cnc(N2CCN(Cc3ccc4ccccc4c3)CC2)nc1` [compound 45] are 0.8 ± 0.1 µM and 2600 ± 1100 nM.
In the same order, the values of `c1cnc(N2CCN(Cc3cccc4ccccc34)CC2)nc1` [compound 46] are 8.5 ± 4 µM and 14500 ± 1500 nM.
As for `c1cc2ccc(CN3CCN(C4CCCCC4)CC3)cc2[nH]1` [compound 50], the “antagonism of D2R cAMP and beta-arrestin signaling (data not shown)” value at human D2R long isoform [3] is reported as “compounds with cyclohexane substituents retained binding affinity for the D2R”.
